ChEMBL document CHEMBL1201862, “PubChem BioAssay data set” (2004)
Active and inactive are the calls of the source.

Experiments:
[1] = molecular target: T1, Short transient receptor potential channel 4 (Mus musculus, UniProt Q9QUQ5); experiment: mouse TRPC4 channel activators, dose response, cell-based, HEK293 TRPC4/mu-opioid, Fluo-4 calcium (AID 434937); assay type: functional
T1 sequence (Q9QUQ5 whole entry): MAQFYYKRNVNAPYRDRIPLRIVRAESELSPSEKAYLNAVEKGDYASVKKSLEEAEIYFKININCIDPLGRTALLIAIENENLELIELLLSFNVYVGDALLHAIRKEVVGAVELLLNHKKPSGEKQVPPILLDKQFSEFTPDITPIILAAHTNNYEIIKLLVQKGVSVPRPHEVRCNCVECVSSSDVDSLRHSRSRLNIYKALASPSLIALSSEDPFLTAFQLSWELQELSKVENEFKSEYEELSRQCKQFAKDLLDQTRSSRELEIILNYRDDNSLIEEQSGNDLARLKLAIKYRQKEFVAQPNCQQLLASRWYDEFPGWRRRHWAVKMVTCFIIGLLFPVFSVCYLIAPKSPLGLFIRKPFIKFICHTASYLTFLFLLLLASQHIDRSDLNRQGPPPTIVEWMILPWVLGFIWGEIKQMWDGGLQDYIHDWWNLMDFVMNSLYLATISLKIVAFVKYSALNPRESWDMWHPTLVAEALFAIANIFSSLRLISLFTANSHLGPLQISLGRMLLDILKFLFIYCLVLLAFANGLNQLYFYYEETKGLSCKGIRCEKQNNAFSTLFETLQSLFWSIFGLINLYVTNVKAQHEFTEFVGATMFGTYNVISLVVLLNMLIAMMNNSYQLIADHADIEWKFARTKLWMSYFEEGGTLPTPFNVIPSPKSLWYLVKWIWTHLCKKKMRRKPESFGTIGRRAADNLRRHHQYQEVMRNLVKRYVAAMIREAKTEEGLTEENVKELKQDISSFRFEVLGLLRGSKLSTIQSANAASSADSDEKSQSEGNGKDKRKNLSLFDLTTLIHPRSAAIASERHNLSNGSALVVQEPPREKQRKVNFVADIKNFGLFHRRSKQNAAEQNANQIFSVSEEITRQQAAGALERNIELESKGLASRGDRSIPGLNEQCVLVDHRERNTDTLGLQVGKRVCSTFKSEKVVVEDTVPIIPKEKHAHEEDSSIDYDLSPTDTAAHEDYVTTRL

[2] = molecular target: Delta-type opioid receptor (Homo sapiens, UniProt P41143); experiment: Counterscreen for agonists of heterodimerization of the mu 1 (OPRM1) and delta 1 (OPRD1) opioid receptors: Luminescence-based cell-based high throughput dose response assay to identify agonists of OPRD1 homodimerization. [Related pubchem assays (depositor defined):AID504326, AID504355, AID504692, AID504904, AID504905]; assay type: functional
Mu-type opioid receptor = Mu-type opioid receptor (Homo sapiens, UniProt P35372); experiment: Counterscreen for agonists of heterodimerization of the mu 1 (OPRM1) and delta 1 (OPRD1) opioid receptors: Luminescence-based cell-based high throughput dose response assay to identify agonists of OPRM1 homodimerization.; assay type: functional;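 note: U2OS cells expressing OPRM1 and beta-arrestin as split beta-galactosidase partners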
[3] = molecular target: 5-hydroxytryptamine receptor 5A (Homo sapiens, UniProt P47898); experiment: Counterscreen for agonists of OPRM1-OPRD1 heterodimerization: luminescence-based cell-based high throughput dose response assay to identify agonists of 5-hydroxytryptamine (serotonin) 5A receptor (HTR5A). [Related pubchem assays (depositor defined):AID504326, AID504355, AID504692, AID504904, AID504905]; assay type: functional
[4] = molecular target: T2, Ubiquitin-conjugating enzyme E2 N (Homo sapiens, UniProt P61088); assay type: functional;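 note: Dose-response confirmation in a TR-FRET assay detecting UBC13-driven polyubiquitin chain formation, inhibition measured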
T2 sequence (P61088 whole entry): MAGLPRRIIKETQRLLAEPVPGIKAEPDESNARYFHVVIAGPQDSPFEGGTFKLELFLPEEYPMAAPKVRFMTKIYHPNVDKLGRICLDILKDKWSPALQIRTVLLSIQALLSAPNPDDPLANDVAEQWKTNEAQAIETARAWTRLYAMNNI

Vero = experiment: cells; assay type: functional; conditions: Chlorocebus sabaeus
[5] = molecular target: Dual specificity tyrosine-phosphorylation-regulated kinase 1A (Rattus norvegicus, UniProt Q63470); assay type: biochemical, Homo sapiens
Escherichia coli = experiment: microbe, parasite or virus in culture
[6] = HEp-2 cell cytotoxicity, dose response, cytotoxicity control for RSV inhibitor project, HTS (AID 2410); assay type: functional; conditions: human respiratory syncytial virus
[7] = molecular target: T3, Heat shock factor protein 1 (Mus musculus, UniProt P38532); experiment: inhibition of MG132-induced HSE-luciferase signal, confirmation, cell-based, NIH3T3, luminescence, dose retest (AID 2382); assay type: functional;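 note: NIH3T3 fibroblasts with HSF1-driven luciferase reporter stressed by proteasome inhibitor MG132; luminescence from HSF1-driven luciferase expression after 8 hours of MG132 stress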
T3 sequence (P38532 whole entry): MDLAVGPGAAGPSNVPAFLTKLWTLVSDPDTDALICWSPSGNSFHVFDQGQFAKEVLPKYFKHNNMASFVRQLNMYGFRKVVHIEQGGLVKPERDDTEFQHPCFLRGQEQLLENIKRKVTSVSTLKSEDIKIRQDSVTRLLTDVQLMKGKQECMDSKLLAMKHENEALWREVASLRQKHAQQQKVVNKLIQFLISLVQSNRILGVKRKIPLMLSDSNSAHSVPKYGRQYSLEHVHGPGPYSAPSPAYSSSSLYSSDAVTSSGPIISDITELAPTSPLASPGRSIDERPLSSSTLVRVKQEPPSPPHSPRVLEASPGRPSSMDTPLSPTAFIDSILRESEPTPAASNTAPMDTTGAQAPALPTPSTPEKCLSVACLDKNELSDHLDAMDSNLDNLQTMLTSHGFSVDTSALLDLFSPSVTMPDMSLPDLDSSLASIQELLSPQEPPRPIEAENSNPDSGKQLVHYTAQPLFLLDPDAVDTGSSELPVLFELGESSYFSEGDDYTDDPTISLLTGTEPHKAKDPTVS

Cytochrome P450 1A2 = molecular target: T4, Cytochrome P450 1A2 (Homo sapiens, UniProt P05177);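 note: PubChem cytochrome P450 panel assay, CYP1A2 panel member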
T4 sequence (P05177 whole entry): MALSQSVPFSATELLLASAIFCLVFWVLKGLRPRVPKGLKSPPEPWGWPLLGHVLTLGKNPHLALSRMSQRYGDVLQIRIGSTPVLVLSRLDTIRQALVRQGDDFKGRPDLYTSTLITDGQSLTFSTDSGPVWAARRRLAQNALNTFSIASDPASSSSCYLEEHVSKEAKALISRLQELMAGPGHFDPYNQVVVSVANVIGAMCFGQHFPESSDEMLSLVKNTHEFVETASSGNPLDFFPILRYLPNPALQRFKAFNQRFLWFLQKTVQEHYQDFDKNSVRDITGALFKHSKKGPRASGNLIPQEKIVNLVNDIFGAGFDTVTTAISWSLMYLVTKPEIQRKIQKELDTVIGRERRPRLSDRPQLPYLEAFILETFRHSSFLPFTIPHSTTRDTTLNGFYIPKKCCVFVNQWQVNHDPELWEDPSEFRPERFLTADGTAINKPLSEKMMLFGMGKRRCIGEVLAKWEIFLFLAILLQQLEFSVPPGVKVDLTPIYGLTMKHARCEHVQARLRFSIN

[8] = NIH-3T3 fibroblast cytotoxicity, dose response, cytotoxicity control, cell-based, fluorescence, Alamar Blue, secondary assay (AID 2327); assay type: functional;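 note: NIH-3T3 mouse fibroblasts cultured with fluconazole at 8 µg/mL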
[9] = C. albicans growth with fluconazole, confirmation, fluorescence, retest (AID 2467); assay type: functional, cell-based
[10] = microbe, parasite or virus in culture; assay type: functional; conditions: Mycobacterium tuberculosis

Mu-type opioid receptor, sequence (P35372 whole entry): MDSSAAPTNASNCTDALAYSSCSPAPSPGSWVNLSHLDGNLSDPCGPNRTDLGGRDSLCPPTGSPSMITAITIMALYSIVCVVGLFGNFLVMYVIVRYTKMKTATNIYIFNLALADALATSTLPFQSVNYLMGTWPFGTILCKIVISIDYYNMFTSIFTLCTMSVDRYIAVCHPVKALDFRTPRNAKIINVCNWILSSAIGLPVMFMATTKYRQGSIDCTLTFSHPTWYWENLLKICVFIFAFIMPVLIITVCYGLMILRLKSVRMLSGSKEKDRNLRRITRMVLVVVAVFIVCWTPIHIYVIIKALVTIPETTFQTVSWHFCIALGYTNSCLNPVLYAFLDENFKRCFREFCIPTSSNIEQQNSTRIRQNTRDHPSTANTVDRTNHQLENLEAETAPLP
Delta-type opioid receptor, sequence (P41143 whole entry): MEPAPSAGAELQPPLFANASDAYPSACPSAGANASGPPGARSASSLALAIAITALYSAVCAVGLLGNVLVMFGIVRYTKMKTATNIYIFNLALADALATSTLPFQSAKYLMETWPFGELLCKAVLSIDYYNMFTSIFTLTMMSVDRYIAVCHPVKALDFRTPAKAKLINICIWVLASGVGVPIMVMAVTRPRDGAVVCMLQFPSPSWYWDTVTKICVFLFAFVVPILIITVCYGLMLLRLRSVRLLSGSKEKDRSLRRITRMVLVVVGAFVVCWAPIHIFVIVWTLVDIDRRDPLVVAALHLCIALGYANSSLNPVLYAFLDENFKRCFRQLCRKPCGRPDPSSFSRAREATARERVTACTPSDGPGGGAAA
5-hydroxytryptamine receptor 5A, sequence (P47898 whole entry): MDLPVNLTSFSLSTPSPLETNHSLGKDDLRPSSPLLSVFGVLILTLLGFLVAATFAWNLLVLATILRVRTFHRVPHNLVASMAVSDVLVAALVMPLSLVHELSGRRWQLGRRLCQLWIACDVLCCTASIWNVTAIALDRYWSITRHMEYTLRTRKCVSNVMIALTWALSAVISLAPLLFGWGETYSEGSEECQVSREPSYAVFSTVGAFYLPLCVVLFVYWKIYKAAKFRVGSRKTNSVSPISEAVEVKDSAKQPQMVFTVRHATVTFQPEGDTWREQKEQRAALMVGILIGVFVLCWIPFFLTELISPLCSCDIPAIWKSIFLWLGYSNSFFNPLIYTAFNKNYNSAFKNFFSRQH

SMILES | EC50 [2] | EC50 (Mu-type opioid receptor) | EC50 [3] | AC50 (Escherichia coli) | other results
CN(C)C(CNC(=O)Cc1ccc(Br)cc1)c1ccccc1 (stereo unspecified) | 36.1 µM (inactive) | > 92.5 µM (inactive) | > 92.5 µM (inactive) |  | EC50 [1]: 0.105 µM (active)
Cc1cccc(Nc2cc(C)c3c(O)cccc3n2)c1C |  |  |  |  | IC50 [4]: > 20 µM (inactive); CC50 (Vero): > 25 µM (active); AC50 [5]: 1.13 µM (active)
COc1ccc(S(=O)(=O)N2CCC(C(N)=O)CC2)cc1 |  |  |  | 38.3 µM (active) | 
CC(C)c1ccc(NC(=O)N(CCc2nc3ccccc3[nH]2)C2CCCC2)cc1 | > 92.4 µM (inactive) | > 92.4 µM (inactive) | > 92.4 µM (inactive) |  | CC50 [6]: 35.4 µM (active); EC50 [7]: > 195 µM (not active); AC50 (Cytochrome P450 1A2): 11.2 µM (inconclusive)
Cn1c(-c2c(N)n(CCc3ccccc3)c3nc4ccccc4nc23)nc2ccccc21 | > 92.5 µM (inactive) | 24.8 µM (inactive) | > 92.5 µM (inactive) |  | EC50 [8]: > 160 µM (inactive); EC50 [9]: > 38 µM (not active); CC50 [10]: > 40 µM (active)
COc1cc(NC(=O)C2CC(=O)NC3=C2C(=O)CC(C)(C)C3)c(OC)cc1Cl (stereo unspecified) |  |  |  | 24.1 µM (active) | 
